{
  "source": "patent US20250000794A1",
  "about": "“IMPROVED DRUG PROCESSING METHODS TO INCREASE DRUG LOADING” (BOARD OF REGENTS, THE UNIVERSITY OF TEXAS SYSTEM, priority 2021, published 2025)",
  "origin": "cited, not measured here",
  "settings": "water",
  "data": [
    {"smiles": "NCCCC[C@H](N)C(=O)O", "note": "[L-lysine]", "values": [
      {"measurement": "Solubility (g/100 mL) Room Temperature", "value": 150, "unit": "g/100 mL"}
    ]}
  ]
}
